# Assay results reported in patent US11260083B2, “Compositions and methods for treating and preventing graft versus host disease” (The Regents of the University of Michigan, priority 2016, dated 2022).
# B1: IFN-γ: proinflammatory mediator (protein, UniProt P01579 24-161, looked up)
# Interferon gamma: QDPYVKEAENLKKYFNAGHSDVADNGTLFLGILKNWKEESDRKIMQSQIVSFYFKLFKNFKDDQSIQKSVETIKEDMNVKFFNSNKKKRDDFEKLTNYSVTDLNVQRKAIHELIQVMAELSPAAKTGKRKRSQMLFRG
# Legend:
# [1] = mouse, in vivo
# Method: Animals were intragastrically gavaged with a bolus (2 g/kg) of either labeled ^13C2-Butyrate or non-labeled ^12C-Butyrate. The small and large intestines were then harvested 6 hours later and prepared for analysis as above. […] The ratio of the labeled to unlabeled peak areas were adjusted to incorporate natural distribution of ^13C label and expressed as percentage of ^13C incorporation into the butyrate pool in the luminal contents (Lumen) and intestinal tissue.
# It was next determined whether there was a difference in the uptake and metabolism of the exogenously administered butyrate between the syngeneic and allogeneic recipients. To this end, metabolic flux analysis (MFA) assessing label incorporation of heavy 13C labeled butyrate into luminal and intestinal tissue butyrate pools was performed by utilizing GC/MS as above. Recipients of syngeneic and allogeneic transplant were treated 7 days after BMT with a bolus of either^13C-butyrate or regular ^12C-butyrate, which served as the control. The IECs and luminal contents were harvested 6 hours later and analyzed for incorporation of ^13C.
# SLC5A8 = assay: Primary IECs cultured with proinflammatory mediators; assay type: cell-based, mouse; conditions: primary IECs exposed to IFN-γ and/or TNF
# Method: It was next explored whether the diminished concentration of butyrate observed in the intestinal tissue was from impaired uptake of butyrate following allo-BMT. To this end, the expression of the known butyrate monocarboxylate transporter (SLC5A8) and the receptor of butyrate (GPR43) was analyzed in IECs following allo-BMT (Ganapathy, V., Thangaraju, M., Prasad, P. D., Martin, P. M. & Singh, N. Transporters and receptors for short-chain fatty acids as the molecular link between colonic bacteria and the host. Curr Opin Pharmacol 13, 869-874 (2013); Furusawa, Y. et al. Commensal microbe-derived butyrate induces the differentiation of colonic regulatory T cells. Nature (2013)). […] Primary IECs were cultured with proinflammatory mediators (IFN-γ and/or TNF) and expression of the butyrate transporter SLC5A8 was analyzed.
# [2] = IECs from large intestine, allogeneic vs syngeneic recipients
Molecule,heavy carbon in malate [2],incorporation into succinate [2],"13C incorporation in malate (IECs from small and large intestines combined, allo-BMT vs syngeneic)",13C heavy butyrate in the intestinal tissue [1],expression of Slc5a8 (SLC5A8)
"CC[13CH2][13C](=O)[O-].[Na+] [^13C-butyrate, Sodium butyrate-1,2-^13C2]",significant difference,trend towards greater incorporation,overall increased level,significantly decreased,
B1,,,,,significantly decreased
